In patent US20070135499A1 (Aerie Pharmaceuticals, Inc., priority 2005, published 2007):
pIC50, pKi: −log10 of the molar value. “Also recorded” adds a separate entry of the source.

What was measured:
GRK-3 = target: T1, GRK-3 (Homo sapiens, UniProt P35626); assay: luciferase-based biochemical kinase inhibition assay, GRK-3; settings: same luciferase assay; read-out: GRK-3 inhibition, Ki class
T1 sequence (P35626 1-688): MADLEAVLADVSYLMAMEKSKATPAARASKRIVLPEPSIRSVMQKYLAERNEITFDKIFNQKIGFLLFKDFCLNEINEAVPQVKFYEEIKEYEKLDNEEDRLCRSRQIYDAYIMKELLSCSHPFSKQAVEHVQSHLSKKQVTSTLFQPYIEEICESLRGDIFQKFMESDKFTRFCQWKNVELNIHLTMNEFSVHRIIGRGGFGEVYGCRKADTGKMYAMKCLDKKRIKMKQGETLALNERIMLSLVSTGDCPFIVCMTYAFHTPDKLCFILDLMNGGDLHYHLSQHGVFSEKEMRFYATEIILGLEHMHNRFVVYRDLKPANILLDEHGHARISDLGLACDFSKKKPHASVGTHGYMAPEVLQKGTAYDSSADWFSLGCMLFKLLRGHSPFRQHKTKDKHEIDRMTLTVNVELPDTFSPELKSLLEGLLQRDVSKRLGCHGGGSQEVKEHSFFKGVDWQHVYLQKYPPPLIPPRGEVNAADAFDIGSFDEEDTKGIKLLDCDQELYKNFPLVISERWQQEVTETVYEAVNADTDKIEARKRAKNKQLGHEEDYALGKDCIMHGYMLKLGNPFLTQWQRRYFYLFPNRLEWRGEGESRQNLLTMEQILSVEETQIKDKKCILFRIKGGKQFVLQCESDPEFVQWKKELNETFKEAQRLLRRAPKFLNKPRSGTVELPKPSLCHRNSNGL
Description: (§1) The inhibition of G-protein-coupled receptor kinases including hGRK-2 was determined for the hydrazide compounds using a biochemical assay. The inhibition of GRK-3, GRK-5 and GRK-6 was also determined using the same assay for some of the hydrazide derivatives.
(§2) The protein kinase inhibition was determined using a biochemical assay utilizing the light emission of a luciferase reaction. The luciferase-based assay operates on the following reaction principles: [drawing 10]
(§3) An inhibitor of GRK-2 will increase in the amount of ATP in solution, as shown. Thus, an inhibitor of GRK-2 will drive the luciferase reaction to the right, resulting in more light emitted. The amount of light emitted is proportional to the inhibition resulting from the GRK-2 inhibitor. The luciferase-based assay was also used to test some of the hydrazides for the inhibition properties towards other kinases.

hGRK-2 = target: T2, hGRK-2 (Homo sapiens, UniProt P25098); assay: luciferase-based (Kinase-Glo) biochemical kinase inhibition assay, hGRK-2; settings: for pKi: luciferase assay, casein substrate, 10 μM ATP, read-out: GRK-2 inhibition, Ki class
T2 sequence (P25098 1-689): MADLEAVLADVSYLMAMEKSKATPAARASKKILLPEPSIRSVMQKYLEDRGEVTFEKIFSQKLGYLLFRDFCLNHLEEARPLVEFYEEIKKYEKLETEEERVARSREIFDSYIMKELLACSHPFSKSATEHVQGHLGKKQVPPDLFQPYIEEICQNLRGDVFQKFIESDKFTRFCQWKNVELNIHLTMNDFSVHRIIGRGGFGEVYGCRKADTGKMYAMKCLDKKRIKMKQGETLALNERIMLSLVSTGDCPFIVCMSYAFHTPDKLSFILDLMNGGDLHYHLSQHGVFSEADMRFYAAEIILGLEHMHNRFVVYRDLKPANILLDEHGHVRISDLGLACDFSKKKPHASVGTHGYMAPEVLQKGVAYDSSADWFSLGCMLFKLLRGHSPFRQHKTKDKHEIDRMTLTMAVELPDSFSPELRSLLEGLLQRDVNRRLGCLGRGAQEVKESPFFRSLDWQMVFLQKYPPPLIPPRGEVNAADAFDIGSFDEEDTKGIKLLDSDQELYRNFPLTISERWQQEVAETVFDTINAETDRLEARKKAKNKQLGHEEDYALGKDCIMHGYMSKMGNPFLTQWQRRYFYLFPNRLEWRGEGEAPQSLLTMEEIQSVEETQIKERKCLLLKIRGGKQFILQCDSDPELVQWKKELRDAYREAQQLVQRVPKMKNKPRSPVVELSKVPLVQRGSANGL
In short: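 Final conditions: 50 nM hGRK2, 20 μM casein, 10 μM ATP and 50 μM test compound in 4.5% DMSO, in HEPES pH 7.5 buffer with MgCl2, orthovanadate, CHAPS, BSA and DTT. Incubation ran 90-120 min at room temperature, targeting 20-30% ATP consumption. Remaining ATP was read by luminescence with diluted Kinase-Glo containing 0.01% trypan blue.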

[1] = Topical ocular composition of Example 103 administered to the eyes; type: in vivo; settings: 0.50 wt % topical composition
Description: Examples of such assays are described in the following reference, incorporated herein: C. Liljebris, G. Selen, B. Resul, J. Sternschantz, and U. Hacksell, “Derivatives of 17-Phenyl-18,19,20-trinorprostaglandin F2α Isopropyl Ester: Potential Antiglaucoma Agents”, Journal of Medicinal Chemistry, Vol. 38 (2) 1995, pp. 289-304.
Topical pharmaceutical compositions for lowering intraocular pressure are prepared by conventional methods and formulated as follows: […]
A compound according to this invention is used as the hydrazide derivative. […]

GRK-6 = GRK-6 (Homo sapiens, UniProt P43250); assay: luciferase-based biochemical kinase inhibition assay, GRK-6; settings: same luciferase assay; read-out: GRK-6 inhibition, Ki class
Description: as §1, §2, §3

[2] = target: Beta 2 Adrenergic Receptor (B2 wt); assay: Transfluor assay, isoproterenol-induced arrestin-GFP translocation to Beta 2 Adrenergic Receptor; type: cell-based; settings: U2OS cells
[3] = tested on: Beta 2 Adrenergic receptor; assay: cAMP accumulation in HEK-293 cells with isoproterenol; type: cell-based; settings: Beta 2 Adrenergic receptor overexpressed, fixed concentration of isoproterenol, increased concentrations of compound
Source text: This is consistent with the inhibition of GRK-2 resulting in less translocation of arrestin-GFP, less desensitization, and consequently more signaling by the B2AR. With more receptors available now on the surface of the cell, more cAMP is being generated in the presence of isoproterenol.

mu-opioid receptor = settings: U2OS cells
[4] = target: Beta 1 Adrenergic receptor (B1 wt); assay: Transfluor assay, ISO-induced arrestin-GFP translocation to Beta 1 Adrenergic receptor; type: cell-based; settings: U2OS cells

GRK-6, sequence (P43250 whole entry, species assumed): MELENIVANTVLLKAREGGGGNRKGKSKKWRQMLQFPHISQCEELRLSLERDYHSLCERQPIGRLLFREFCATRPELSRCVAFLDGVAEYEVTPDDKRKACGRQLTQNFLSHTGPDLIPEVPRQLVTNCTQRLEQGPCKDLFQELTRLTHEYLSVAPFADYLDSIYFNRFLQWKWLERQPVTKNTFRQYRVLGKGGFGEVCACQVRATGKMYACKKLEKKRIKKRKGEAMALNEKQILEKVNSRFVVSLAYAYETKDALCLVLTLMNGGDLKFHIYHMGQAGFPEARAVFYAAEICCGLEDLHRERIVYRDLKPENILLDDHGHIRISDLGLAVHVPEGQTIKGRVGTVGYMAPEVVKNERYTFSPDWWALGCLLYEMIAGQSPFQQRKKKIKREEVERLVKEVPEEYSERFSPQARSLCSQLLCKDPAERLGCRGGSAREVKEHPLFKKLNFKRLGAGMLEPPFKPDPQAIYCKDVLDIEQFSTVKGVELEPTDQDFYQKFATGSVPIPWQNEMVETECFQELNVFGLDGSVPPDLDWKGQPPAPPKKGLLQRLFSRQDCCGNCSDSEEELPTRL

NC(=O)c1cccc(NCC(=O)N/N=C/c2ccncc2)c1 [Example 51, 3-{[1-Pyridin-4-yl-meth-(E)-ylidene-hydrazinocarbonylmethyl]-amino}-benzamide]
pKi (GRK-3): 6.00 to 7.00
pKi (hGRK-2): 6.00 to 7.00
hyperemia, redness and ocular irritation ([1]; drop as needed): substantially decreases hyperemia, redness and ocular irritation

O=C(CNc1cccc(C(=O)NCCN2CCOCC2)c1)N/N=C/c1ccncc1 [Example 79, N-(2-Morpholin-4-yl-ethyl)-3-{[1-pyridin-4-yl-meth-(E)-ylidene-hydrazinocarbonylmethyl]-amino}-benzamide]
pKi (hGRK-2): 6.00 to 7.00
intraocular pressure ([1]; drop 4 times per day): substantially decreases intraocular pressure
neuroprotective agent ([1]; drop 4 times per day): serves as a neuroprotective agent

NC(=O)c1ccc(NCC(=O)N/N=C/c2c(Cl)cncc2Cl)cc1 [Example 28, 4-{[1-(3,5-Dichloro-pyridin-4-yl)-meth-(E)-ylidene-hydrazinocarbonylmethyl]-amino}-benzamide]
pKi (hGRK-2): < 5.00
intraocular pressure ([1]; drop twice per day): substantially decreases intraocular pressure

Cc1ccc(Oc2cccc(NCC(=O)N/N=C/c3ccncc3)c2)cc1 [Example 85, (3-p-Tolyloxy-phenylamino)-acetic acid [1-pyridin-4-yl-meth-(E)-ylidene]-hydrazide]
pKi (hGRK-2): 7.00 to 8.00
allergic symptoms ([1]; drop twice per day): substantially decreases allergic symptoms
dry eye syndrome ([1]; drop twice per day): relieves dry eye syndrome

3-{[1-Pyridin-4-yl-meth-(E)-ylidene-hydrazinocarbonylmethyl]-amino}-benzamide [Example 41]
pKi (GRK-6): < 5.00
pIC50 ([2]; 60 minute pre-incubation, ISO-induced β-arrestin translocation, read-out: IC50 of the β2 arrestin (FIG. 1)): 5.40
inhibition of arrestin-GFP translocation to the B2 WT (F-grains) ([2]; isoproterenol): stepwise reduction in translocation; also recorded: modest inhibition
accumulation of cAMP [3]: increased accumulation of cAMP
inhibition of arrestin-GFP translocation to the μ opioid (mu-opioid receptor): strong inhibition
pIC50 (mu-opioid receptor; read-out: IC50 for the μ-opioid receptor (FIG. 3), 60 minute pre-incubation, morphine-induced β-arrestin translocation): ~6.82
pKi (GRK-3): 7.00 to 8.00
inhibition of GRK-2, in words (hGRK-2): very good inhibitor of GRK-2
pKi (hGRK-2): 7.00 to 8.00
pIC50 ([4]; 60 minute pre-incubation, ISO-induced β-arrestin translocation, read-out: IC50 of the β1 arrestin (FIG. 2)): < 5.00
inhibition of arrestin-GFP translocation to the B1 WT [4]: modest inhibition
